Measurements: patent publication US10894817B2, “Fatty acid modified urocortin-2 analogs for the treatment of diabetes and chronic kidney disease” (priority 2016, dated 2021)
Starred links: 1 amine or outer side, 2 acyl side, 3 side chain; linkers in the order of their positions; H or OH if unused. Non-standard residues stand in square brackets, D forms with d. Residues, ends and D or L forms follow the SMILES beside them. Groups on a side chain read outwards from the residue. *: point of attachment. C20 diacid = O=C(O)CCCCCCCCCCCCCCCCCCC(=O)*; γGlu = O=C(O)[C@H](CCC(=O)[*:2])N[*:1]; NMeI = CC[C@H](C)[C@H](NC)C(=O)O; AEEA = NCCOCCOCC(=O)O

Key:
human CRHR1 = target: T1, human CRHR1 (Homo sapiens, UniProt P34998); assay: human CRHR1 cell-based cAMP assay (Y79 cells); details: Y79 cells with endogenous human CRHR1, mean ± SEM of runs, read-out: hCRHR1 Average EC50
T1 construct: which expresses endogenous human CRHR1; host or cells: Y79 human retinoblastoma cells
T1 sequence (P34998 24-415): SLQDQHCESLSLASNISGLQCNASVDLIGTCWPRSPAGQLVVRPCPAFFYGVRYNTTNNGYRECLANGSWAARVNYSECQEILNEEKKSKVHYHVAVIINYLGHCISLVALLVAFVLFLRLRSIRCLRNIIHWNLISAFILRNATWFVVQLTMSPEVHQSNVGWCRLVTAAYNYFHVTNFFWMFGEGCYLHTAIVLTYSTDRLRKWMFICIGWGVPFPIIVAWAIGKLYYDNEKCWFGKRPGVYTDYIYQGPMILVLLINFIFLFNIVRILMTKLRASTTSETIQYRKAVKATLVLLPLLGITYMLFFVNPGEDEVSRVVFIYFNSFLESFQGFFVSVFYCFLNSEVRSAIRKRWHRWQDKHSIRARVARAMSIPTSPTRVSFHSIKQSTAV
Procedure: CRHR agonistic activity is measured in a cell-based cAMP assay. Serial dilutions of the test peptides are made in assay buffer containing Hank's Balanced Salt Solution (HBSS, without phenol red) supplemented with 20 mM HEPES and 0.05% lactalbumin enzymatic hydrolysate (LAH) (“assay buffer”). The highest concentration that is used starts from 1 μM in the human CRHR2b, whereas 100 μM starting concentration is used in the human CRHR1 assay. A one to three dilution of the test peptides is used in both assays.
The human Retinoblastoma cell line Y79 (ATCC #HTB-18), which expresses endogenous human CRHR1, is used in the human CRHR1 assay. The cells are grown in RPMI 1640 (Hyclone, #SH30255) containing 20% fetal bovine serum and 10 mM HEPES, in suspension culture. Cells are centrifuged to remove the culture media and washed once in HBSS supplemented with 20 mM HEPES. The cells are resuspended in the assay buffer and 20,000 cells are used per treatment in the human CRHR1 assay.
The cells are dispensed into Costar 96-well black polystyrene half area EIA/RIA plates (Corning Incorporated, Corning, N.Y.) followed by the addition of the diluted peptides, each at a volume of 20 μL. The agonist induced cAMP levels are detected using a HTRF cAMP Dynamic 2 kit (CisBio, Bedford, Mass.). After incubation at 37° C. for 30 min, the assay is stopped by cell lysis via the addition of 20 μL of d2-labeled cAMP and followed by 20 μL of cryptate-labeled anti-cAMP antibody, as described by the manufacturer. Cellular cAMP (as a result of agonist stimulation) competes with the d2-labeled cAMP for binding to the antibody. HTRF detection is performed on an Envision plate reader (Perkin Elmer Life and Analytical Sciences, Waltham, Mass.) by measuring ratiometric emission at 620 and 665 nm after excitation at 320 nm.
The data are converted to picomoles of cAMP using a standard curve obtained from the same assay performed with varying concentrations of unlabeled cAMP. Percent of the maximum activation of the cells is calculated using converted picomole cAMP data by comparing to the amount of cAMP produced by 1 μM human UCN2 for the human CRHR2b or 1 μM human UCN1 for the human CRHR1 assay. The data are analyzed using a Curve Fitting Tool to calculate ED50. Numeric values shown below in Table 1 represent the mean of multiple runs (number of runs shown in parentheses) following the mean value±SEM.

human CRHR2b = target: T2, human CRHR2b (Homo sapiens, UniProt Q13324); assay: human CRHR2b cell-based cAMP assay; details: cAMP assay, CHO cells transfected with human CRHR2b; mean ± SEM of runs; read-out: hCRHR2b Average EC50
T2 construct: expressed in transfected cells; host or cells: Chinese Hamster Ovary (CHO) cells, transient transfection
T2 sequence (Q13324 1-438 isoform Q13324-2): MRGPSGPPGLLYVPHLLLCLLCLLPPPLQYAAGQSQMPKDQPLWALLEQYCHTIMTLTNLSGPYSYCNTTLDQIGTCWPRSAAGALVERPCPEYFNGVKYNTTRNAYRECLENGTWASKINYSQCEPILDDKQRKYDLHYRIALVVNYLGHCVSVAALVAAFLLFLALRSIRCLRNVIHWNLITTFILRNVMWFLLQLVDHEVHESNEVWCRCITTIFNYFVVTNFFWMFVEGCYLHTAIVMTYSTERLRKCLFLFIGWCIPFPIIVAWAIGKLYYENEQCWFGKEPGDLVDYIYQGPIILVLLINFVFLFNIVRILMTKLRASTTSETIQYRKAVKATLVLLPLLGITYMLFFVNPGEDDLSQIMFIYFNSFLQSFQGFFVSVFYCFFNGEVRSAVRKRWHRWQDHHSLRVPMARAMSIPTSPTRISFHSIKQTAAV
Outline: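 ED50 values are means ± SEM over several runs, curve-fitted from cAMP in pmol, calibrated against unlabeled-cAMP standards. Detection was HTRF competition, ratio 665/620 nm, after 30 min agonist exposure at 37 °C.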

EC50 (human CRHR1): > 100000 nM
EC50 (human CRHR2b): 2.5 ± 1.06 nM
SMILES: CC[C@H](C)[C@H](NC)C(=O)N[C@H](C(=O)N[C@@H](CC(C)C)C(=O)N[C@@H](CO)C(=O)N[C@@H](CC(C)C)C(=O)N[C@@H](CC(=O)O)C(=O)N[C@H](C(=O)N1CCC[C@H]1C(=O)N[C@H](C(=O)NCC(=O)N[C@@H](CC(C)C)C(=O)N[C@@H](CC(C)C)C(=O)N[C@@H](CCC(N)=O)C(=O)N[C@H](C(=O)N[C@@H](CC(C)C)C(=O)N[C@@H](CC(C)C)C(=O)N[C@@H](CCC(=O)O)C(=O)N[C@@H](CCC(N)=O)C(=O)N[C@@H](CCC(=O)O)C(=O)N[C@@H](CCCCN)C(=O)N[C@@H](CCC(N)=O)C(=O)N[C@@H](CCC(=O)O)C(=O)N[C@@H](CCCCN)C(=O)N[C@@H](CCC(=O)O)C(=O)N[C@@H](CCCCN)C(=O)N[C@@H](CCC(N)=O)C(=O)N[C@@H](CCC(N)=O)C(=O)N[C@@H](C)C(=O)N[C@@H](CCCCNC(=O)COCCOCCNC(=O)COCCOCCNC(=O)CC[C@H](NC(=O)CC[C@H](NC(=O)CCCCCCCCCCCCCCCCCCC(=O)O)C(=O)O)C(=O)O)C(=O)N[C@H](C(=O)N[C@@H](CC(N)=O)C(=O)N[C@@H](C)C(=O)N[C@@H](CCC(=O)O)C(=O)N[C@H](C(=O)N[C@@H](CC(C)C)C(=O)N[C@@H](C)C(=O)N[C@@H](CCC(N)=O)C(=O)N[C@H](C(N)=O)C(C)C)[C@@H](C)CC)[C@@H](C)O)[C@@H](C)CC)[C@@H](C)CC)C(C)C)C(C)C [Example 6] (H-[NMeI]VLSLDVPIGLLQILLEQEKQEKEKQQAK([AEEA-AEEA-γGlu-γGlu-C20 diacid])TNAEILAQV-NH2)
